Data from paper PMC7018657, “Molecular Determinants of Substrate Selectivity of a Pneumococcal Rgg-Regulated Peptidase-Containing ABC Transporter” (mBio, 2020).
Where no end group is shown, it is not given here.

What was measured:
[1] = test system: Sp9-BS68 PrtgS1-luc in ΔpptAB and ΔamiCD mutants; assay: Response of ΔpptAB and ΔamiCD PrtgS1-luc reporters to exogenous RtgS; assay type: cell-based, Streptococcus pneumoniae Sp9-BS68; settings: CDM+, RtgSA-C10 at OD620 0.02, max within 60 min, 3 independent experiments
Experimental: Supplementary file : FIG S1 Ami and PptAB are required for RtgR/S signaling. (A) Both Ami and PptAB are required for natural rtg autoinduction. Sp9-BS68 PrtgS1-luc reporters were grown in CDM+ and monitored for rtg activation (dark, left y axis) and cell density (light, right y axis). Plots show medians (lines) and 25% to 75% quantiles (shading) from 30 wells per strain pooled from 3 independent experiments. […] Sp9-BS68 PrtgS1-luc reporters were grown in CDM+ to an OD620 of 0.02 and treated with RtgSA-C10. Response was defined as the maximum observed PrtgS1 activity within 60 min of treatment. Plotted data points represent means ± SEs from 3 independent experiments. Download FIG S1, PDF file, 0.6 MB.
(§1) Cells expressing PrtgS1-luc reporters were grown in THY or CDM+ containing 330 μM firefly luciferin. At an OD620 of 0.02, cultures were aliquoted into a white, clear-bottom 96-well plate (655098; Greiner Bio-One), 100 μl per well. […] The plate was then incubated in a Synergy HTX plate reader set to read absorbance at 620 nm and luminescence every 5 min. For D39 strains only, the plate was shaken before readings were taken. PrtgS1 activity was calculated, and the response was defined as the maximum observed PrtgS1 activity within 60 min (Sp9-BS68) or 120 min (D39) of treatment. […]

[2] = test system: Sp9-BS68 rtgS1 promoter (PrtgS1-luc; RtgR-dependent); assay: RtgS dose-response assay, PrtgS1-luc reporter, Sp9-BS68 ΔrtgS1; assay type: cell-based, Streptococcus pneumoniae Sp9-BS68; settings: for induction of rtgS1 promoter: Sp9-BS68 PrtgS1-luc, CDM+ and THY; for Maximal response / EC50: Sp9-BS68 ΔrtgS1, mean ± SE from Hill fit, 3 independent experiments, max PrtgS1 activity within 60 min; for EC50: synthetic peptide added at OD620 0.02, luminescence, 37°C
Experimental: (§2) FIG 2 The Rgg/SHP-like RtgR/RtgS system regulates rtg. (A) rtgR and rtgS1 are required for rtg activation in Sp9-BS68. Sp9-BS68 PrtgS1-luc reporters were grown in CDM+ or THY and monitored for rtg activation (dark, left y axis) and cell density (light, right y axis). Plots show medians (lines) and 25% to 75% quantiles (shading) from 12 wells pooled from 3 independent experiments. (B) Translated rtgS gene products from Sp9-BS68 and D39. The type-defining residues are highlighted in red. (C) rtgS1 but not rtgS2 is required for rtg activation in D39. D39 PrtgS1-luc reporters were grown in CDM+ and monitored for rtg activation (dark, left y axis) and cell density (light, right y axis). Plots show medians (lines) and 25% to 75% quantiles (shading) from 30 wells pooled from 3 independent experiments. C-terminal fragments of RtgSA induce rtg in an RtgR-dependent manner. Sp9-BS68 PrtgS1-luc reporters were grown in CDM+ and THY (D) or CDM+ only (E) to an OD620 of 0.02 and treated with synthetic RtgSA fragments. Response was defined as the maximum observed PrtgS1 activity within 60 min of treatment. Data in panel D were fitted to the four-parameter Hill model (curves). Plotted data points represent means ± SEs from 3 independent experiments. […] A D39 ΔrtgS1 ΔrtgS2 PrtgS1-luc reporter was grown in CDM+ to an OD620 of 0.02 and treated with synthetic RtgS fragments. Response was defined as the maximum observed PrtgS1 activity within 60 min of treatment. Data were fitted to the four-parameter Hill model (curves). Plotted data points represent means ± SEs from 3 independent experiments. […] A D39 ΔrtgS1 ΔrtgS2 PrtgS1-luc reporter was grown in CDM+ to an OD620 of 0.02 and treated simultaneously with 2 nM RtgSA-C10 and various concentrations of RtgSB-C10. Response was defined as the maximum observed PrtgS1 activity within 120 min of treatment. Plotted data points represent means ± SEs from 3 independent experiments. **, P < 0.01; ***, P < 0.001 versus 0 nM RtgSB-C10 by ANOVA with Dunnett’s correction for multiple comparisons.
(§3) All strains were derived from Sp9-BS68 ([36]), D39, or the R6 strain P654 (referred to as PSD100 in reference) (see Table S1 and methods in Text S1 in the supplemental material for details). […] Pneumococcus was grown in either filter-sterilized THY (Todd Hewitt broth plus 0.5% yeast extract) or CDM+ (see methods in Text S1) ([38]) at 37°C. All media contained 5 μg/ml catalase. All CDM+ was supplemented with 0.5% (vol/vol) THY. Except where noted otherwise, pneumococcal cultures used for experiments were inoculated to an OD620 of 0.0015 from starter cultures grown in THY (pH 7.4) to an OD620 of 0.275 and frozen at −80°C in 13% glycerol. Starter cultures were pelleted at 6,000 × g for 5 min at room temperature and resuspended in the appropriate growth medium for the experiment before being used for inoculation. Antibiotics were used at the following concentrations: chloramphenicol, 2 μg/ml; gentamicin, 200 μg/ml; kanamycin, 500 μg/ml; spectinomycin, 200 μg/ml; streptomycin, 100 μg/ml.
Cells expressing PrtgS1-luc reporters were grown in THY or CDM+ containing 330 μM firefly luciferin. At an OD620 of 0.02, cultures were aliquoted into a white, clear-bottom 96-well plate (655098; Greiner Bio-One), 100 μl per well. Each well of the plate was prefilled with 100 μl sterile medium containing 0.5% (vol/vol) dimethyl sulfoxide (DMSO), 330 μM firefly luciferin, and appropriate concentrations of synthetic RtgS peptide (Genscript). The plate was then incubated in a Synergy HTX plate reader set to read absorbance at 620 nm and luminescence every 5 min. For D39 strains only, the plate was shaken before readings were taken. PrtgS1 activity was calculated, and the response was defined as the maximum observed PrtgS1 activity within 60 min (Sp9-BS68) or 120 min (D39) of treatment. When applicable, curves were fit to a Hill model using the nls() function in R 3.5.1.

[3] = molecular target: T1, D39 PrtgS1-luc (rtg locus) (Streptococcus pneumoniae, UniProt A0ACD7PPC8); assay: RtgS dose-response assay, PrtgS1-luc reporter, D39 ΔrtgS1 ΔrtgS2; assay type: cell-based; settings: CDM+; for Maximal response: mean ± SE from Hill fit, 3 independent experiments, max PrtgS1 activity within 60 min / 120 min (methods)
T1 sequence (A0ACD7PPC8 1-287): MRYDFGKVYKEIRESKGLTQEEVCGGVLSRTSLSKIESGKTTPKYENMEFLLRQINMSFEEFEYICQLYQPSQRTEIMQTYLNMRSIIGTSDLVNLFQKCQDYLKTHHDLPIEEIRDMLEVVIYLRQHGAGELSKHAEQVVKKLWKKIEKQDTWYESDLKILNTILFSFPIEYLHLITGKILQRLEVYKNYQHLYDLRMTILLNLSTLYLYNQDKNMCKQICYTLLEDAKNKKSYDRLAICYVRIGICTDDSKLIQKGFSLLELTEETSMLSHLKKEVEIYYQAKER
Experimental: as §2, §3
as §1, with “luciferin.” for “luciferin. At an OD620 of 0.02, cultures were aliquoted into a white, clear-bottom 96-well plate (655098; Greiner Bio-One), 100 μl per well.”

[4] = molecular target: T1, D39 PrtgS1-luc (rtg locus); assay: Competitive dose-response assay of RtgSB-C10 against RtgSA-C10, D39 ΔrtgS1 ΔrtgS2 PrtgS1-luc; assay type: cell-based; settings: CDM+
Experimental: FIG 2 The Rgg/SHP-like RtgR/RtgS system regulates rtg. (A) rtgR and rtgS1 are required for rtg activation in Sp9-BS68. Sp9-BS68 PrtgS1-luc reporters were grown in CDM+ or THY and monitored for rtg activation (dark, left y axis) and cell density (light, right y axis). Plots show medians (lines) and 25% to 75% quantiles (shading) from 12 wells pooled from 3 independent experiments. (B) Translated rtgS gene products from Sp9-BS68 and D39. The type-defining residues are highlighted in red. (C) rtgS1 but not rtgS2 is required for rtg activation in D39. D39 PrtgS1-luc reporters were grown in CDM+ and monitored for rtg activation (dark, left y axis) and cell density (light, right y axis). Plots show medians (lines) and 25% to 75% quantiles (shading) from 30 wells pooled from 3 independent experiments. C-terminal fragments of RtgSA induce rtg in an RtgR-dependent manner. […]
as §1, with “luciferin.” for “luciferin. At an OD620 of 0.02, cultures were aliquoted into a white, clear-bottom 96-well plate (655098; Greiner Bio-One), 100 μl per well.”

Row | Sequence | rescue of rtg activation by exogenous RtgS [1] | induction of rtgS1 promoter [2] | Maximal response ([2]; CDM+) | EC50 ([2]; CDM+) [nM] | Maximal response ([2]; THY) | EC50 ([2]; THY) [nM] | rtg induction / type of agonism [3] | Maximal response [3] | antagonism of RtgSA-C10 ([4]; high concentrations with 2 nM RtgSA-C10, 3 independent experiments) | concentration antagonizing RtgSA-C10 ([4]; simultaneous with 2 nM RtgSA-C10, max PrtgS1 activity within 120 min, 3 independent experiments) [nM] | EC50 value larger than that of RtgSA-C10 (ratio) ([3]; versus RtgSA-C10) [fold]
1 | AIIFPWGWPI [RtgSA-C10] | rescues rtg activation defect in the ΔpptAB mutant but not the ΔamiCD mutant | induced expression from the Sp9-BS68 rtgS1 promoter in both CDM+ and THY | 205.7 ± 9.1 10^3 RLU·min^−1·OD620^−1 | 1.63 ± 0.19 | 232.4 ± 14.3 10^3 RLU·min^−1·OD620^−1 | 47.4 ± 6.9 | induces rtg similarly to Sp9-BS68 | 75.1 ± 8.1 10^3 RLU·min^−1·OD620^−1 | – | – | –
2 | AIIFPWGWSI [RtgSB-C10] | – | – | – | – | – | – | partial agonist | 21.2 ± 1.5 10^3 RLU·min^−1·OD620^−1 | antagonize RtgSA-C10 | ≥ 256 | 55
3 | IFPWGWPI [RtgSA-C8] | – | induced expression from the Sp9-BS68 rtgS1 promoter in both CDM+ and THY | 212.2 ± 9.4 10^3 RLU·min^−1·OD620^−1 | 2.53 ± 0.25 | 229.7 ± 8.6 10^3 RLU·min^−1·OD620^−1 | 184 ± 15 | – | – | – | – | –
4 | SLAIIFPWGWPI [RtgSA-C12] | – | induced expression from the Sp9-BS68 rtgS1 promoter in both CDM+ and THY | 213.9 ± 8.0 10^3 RLU·min^−1·OD620^−1 | 3.51 ± 0.28 | 210.1 ± 13.1 10^3 RLU·min^−1·OD620^−1 | 315 ± 42 | – | – | – | – | –
